Measured values published in patent US11739053B2, “P62-ZZ chemical inhibitor” (ID4PHARMA, LLC, priority 2011, dated 2023).

Tested on: MM1.S cells
Test: Reactive oxygen species detection in MM1.S cells
Type: cell-based, human
Settings: 10 μM, 6 hours
Experimental: FIG. 9A-C: 9A. […] MM1.S cells were cultured with 10 μM of p62-ZZ antagonist for the indicated time, and then cell lysates were collected. Caspase 9, 7 and 3 were detected by Western blotting using anti-caspase 9, 7 and 3 specific antibodies (Cell Signaling). FIG. 9B. Detection of Apoptosis using the TUNEL reaction with MM1.S cells treated with p62-ZZ antagonist. MM1.S cells were treated with 10/μM of p62-ZZ antagonist #3 for 24 hours and then the cells were collected and mounted on glass slides using the cytospin procedure. Terminal deoxynucleotidyl transferase nick end labeling (TUNEL) reactions were conducted using an In Situ Cell Death Detection Kit (Roche) according to the manufacturer's instructions. The stained cells were analyzed using a fluorescence microscope equipped with standard green filter. FIG. 9C. The p62-ZZ antagonist induced Reactive Oxygen Species in MM1.S cells. MM1.S cells were treated with 10 μM of p62-ZZ antagonist #3 for 6 hours. Cells were collected and stained for Reactive Oxygen Species (ROS) using a Total ROS detection kit (Enzo) according to the manufacturer's instructions. The expression of apoptosis markers in p62-ZZ antagonist treated on 25 MM cells was determined to determine the mechanism action of this antagonist.

Question: OCCNCc1ccc(OCc2ccccc2)c(OCc2ccccc2)c1 [Compound 3, 2-[[3,4-bis(phenylmethoxy)phenyl]methylamino]ethanol] was tested. Which “reactive oxygen species (ROS) production” value did it give?
Answer: induced reactive oxygen species (ROS) production
